Test results reported in US7662576B2, “Method for identifying ester coolers” (International Flavors & Fragrances Inc., priority 2007, dated 2010).
Entries after “also recorded” stand apart in the source; their conditions may differ. Values belong to the compound of their own block, whether it stands above or below them.

Experiments:
[1] = cited from earlier work; for Relative Cooling Strengths: compared to (−)-Menthol at 100, source Erman (2003); for relative cooling strength: with respect to WS-3 at 10.0, U.S. Patent Application No. 20050265930
mouse TRPA1 channel = mouse TRPA1 channel (Mus musculus, UniProt Q8BLA8); conditions: literature; cited from earlier work
TRPM8 [2] = target: TRPM8 (Homo sapiens, UniProt Q7Z2W7); assay: TRPM8 FLIPR analysis (calcium, Fluo4NW); format: cell-based; conditions: for comparison of TRPM8 and TRPA1 response / response of TRPM8 channel: FLIPR; for comparison of TRPM8 and TRPA1 response: TRPM8 versus TRPA1; for response of TRPM8 channel: result in words; for temporal response: FIG. 2
Procedure: (§1) Materials. Fluo4NW solution was prepared by solubilizing one Fluo4NW bottle (Molecular Probes #F36206, component A) in 16 mL of Tyrode buffer (pH 7.4, 130 mM NaCl, 5 mM KCl, 2 mM CaCl2, 1 mM MgCl2, 5 mM NaHCO3, 20 mM HEPES). To the resulting solution was then added 100 μL of water-soluble probenecid (Molecular Probes #F36206, component B).
(§2) Cell Preparation. Cells were trypsinized and 10,000 cells were dispensed per well in poly-lysine-coated, black, clear-bottom 384-well plates (35 μL/well in DMEM without antibiotics). Cells were incubated for 24 hours at 37° C. in 5% CO2. The medium was completely eliminated and 20 (TRPA1) or 40 (TRPM8) μL/well of Fluo4NW solution was added to the plates. Cells were incubated for 1 hour at room temperature protected from light. Two addition kinetic measurements were recorded on the instrument for 7.5 (TRPA1) or 15 (TRPM8) minutes.

human TRPA1 = target: T1, human TRPA1 (Homo sapiens, UniProt O75762); assay: TRPA1 FLIPR analysis (calcium, Fluo4NW) in TREX FLP-IN HEK 293 cells expressing TRPA1; format: cell-based; conditions: result in words
T1 construct: expressed in transfected cells
Procedure: Preferred assays to measure TRPA1 channel activity are cell-based assays that utilize cells loaded with ion or voltage-sensitive dyes to report TRPA1 activation. By way of illustration, an inducible TRPA1 cell line was created by stably introducing TRPA1 into TREX-FLPN cells (INVITROGEN). […] In this assay, cells were incubated with a suitable flouroscent dye. […] After obtaining a baseline, various cooling compounds were added and fluorescence measured for several minutes.
as §1, §2
NotI and XhoI restriction sites were also added to the ends to facilitate cloning into expression vectors.
The TRPA1 cDNA was cloned into two expression vectors, pcDNA5/FRT and pcDNA5/FRT/TO (INVITROGEN), using the NotI and XhoI sites. The former vector allows for constitutive expression in mammalian cells the latter for inducible expression in same. Restriction digests, ligations and transformations were performed using routine molecular biological techniques, wherein restriction enzymes were obtained from New England Biolabs, a rapid ligation kit from Roche and competent cells (Max Efficiency DH5 t1 phage-resistant) from INVITROGEN. […]

TRPM8 [3] = target: TRPM8 (Mus musculus, UniProt Q8R4D5); conditions: Behrendt et al. (2004); cited from earlier work
TRPA1 = conditions: literature; cited from earlier work

Sequence of mouse TRPA1 channel (Q8BLA8 whole entry): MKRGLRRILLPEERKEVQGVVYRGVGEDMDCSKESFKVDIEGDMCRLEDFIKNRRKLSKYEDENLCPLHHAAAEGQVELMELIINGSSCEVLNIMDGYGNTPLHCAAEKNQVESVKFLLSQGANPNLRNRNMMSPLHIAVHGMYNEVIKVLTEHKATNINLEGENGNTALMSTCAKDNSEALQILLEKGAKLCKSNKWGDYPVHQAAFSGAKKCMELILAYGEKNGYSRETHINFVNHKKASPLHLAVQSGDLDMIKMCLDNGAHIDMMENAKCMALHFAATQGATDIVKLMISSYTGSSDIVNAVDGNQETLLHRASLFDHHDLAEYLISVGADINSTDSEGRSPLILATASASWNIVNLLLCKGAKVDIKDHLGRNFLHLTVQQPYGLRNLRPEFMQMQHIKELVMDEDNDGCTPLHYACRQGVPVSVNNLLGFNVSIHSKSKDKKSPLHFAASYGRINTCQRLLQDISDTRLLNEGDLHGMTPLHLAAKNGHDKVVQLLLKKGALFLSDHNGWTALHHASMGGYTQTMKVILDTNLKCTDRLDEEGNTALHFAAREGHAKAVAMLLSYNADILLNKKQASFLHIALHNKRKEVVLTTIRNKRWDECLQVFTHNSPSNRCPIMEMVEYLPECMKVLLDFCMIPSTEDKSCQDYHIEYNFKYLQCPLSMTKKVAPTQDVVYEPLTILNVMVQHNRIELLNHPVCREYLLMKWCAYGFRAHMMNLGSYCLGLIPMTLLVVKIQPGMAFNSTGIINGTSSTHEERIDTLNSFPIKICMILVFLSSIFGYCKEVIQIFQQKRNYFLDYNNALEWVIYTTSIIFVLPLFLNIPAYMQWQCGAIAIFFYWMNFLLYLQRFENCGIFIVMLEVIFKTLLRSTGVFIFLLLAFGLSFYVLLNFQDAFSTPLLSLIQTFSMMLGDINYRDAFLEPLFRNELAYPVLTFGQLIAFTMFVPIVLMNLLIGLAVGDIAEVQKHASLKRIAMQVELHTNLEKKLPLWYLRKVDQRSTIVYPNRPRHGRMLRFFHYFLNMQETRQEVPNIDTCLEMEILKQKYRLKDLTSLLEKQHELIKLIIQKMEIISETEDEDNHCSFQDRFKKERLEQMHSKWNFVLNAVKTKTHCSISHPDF
T1 sequence (O75762 whole entry): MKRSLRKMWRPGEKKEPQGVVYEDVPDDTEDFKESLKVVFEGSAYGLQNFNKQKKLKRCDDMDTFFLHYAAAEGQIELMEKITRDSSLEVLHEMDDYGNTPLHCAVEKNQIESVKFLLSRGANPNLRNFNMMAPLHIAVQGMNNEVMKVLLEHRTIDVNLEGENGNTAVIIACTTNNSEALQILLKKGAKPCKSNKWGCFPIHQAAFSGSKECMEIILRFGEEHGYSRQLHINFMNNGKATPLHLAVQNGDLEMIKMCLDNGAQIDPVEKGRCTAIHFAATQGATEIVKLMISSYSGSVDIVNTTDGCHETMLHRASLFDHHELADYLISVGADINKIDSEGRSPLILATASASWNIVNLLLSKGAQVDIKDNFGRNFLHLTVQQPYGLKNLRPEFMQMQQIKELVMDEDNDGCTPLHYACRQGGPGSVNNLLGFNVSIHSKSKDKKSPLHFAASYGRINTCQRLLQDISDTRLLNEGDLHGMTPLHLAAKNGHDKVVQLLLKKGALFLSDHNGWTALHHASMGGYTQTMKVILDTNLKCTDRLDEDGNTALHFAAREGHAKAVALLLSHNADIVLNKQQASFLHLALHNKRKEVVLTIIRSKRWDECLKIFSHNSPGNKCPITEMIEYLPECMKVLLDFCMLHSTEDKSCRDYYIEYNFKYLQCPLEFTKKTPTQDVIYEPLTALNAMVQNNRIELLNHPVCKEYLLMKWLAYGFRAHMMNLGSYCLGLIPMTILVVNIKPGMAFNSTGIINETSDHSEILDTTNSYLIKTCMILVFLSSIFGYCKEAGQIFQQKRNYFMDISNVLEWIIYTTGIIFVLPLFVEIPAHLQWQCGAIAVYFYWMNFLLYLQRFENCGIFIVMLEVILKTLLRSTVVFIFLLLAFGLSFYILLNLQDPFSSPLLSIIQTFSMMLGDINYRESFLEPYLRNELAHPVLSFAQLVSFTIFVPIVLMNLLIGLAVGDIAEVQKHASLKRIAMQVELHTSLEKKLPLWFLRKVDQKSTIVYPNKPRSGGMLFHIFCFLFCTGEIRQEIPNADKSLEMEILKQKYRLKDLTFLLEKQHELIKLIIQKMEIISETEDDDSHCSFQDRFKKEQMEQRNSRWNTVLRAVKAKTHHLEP
Sequence of TRPM8 (Homo sapiens, UniProt Q7Z2W7) (Q7Z2W7 whole entry, species assumed): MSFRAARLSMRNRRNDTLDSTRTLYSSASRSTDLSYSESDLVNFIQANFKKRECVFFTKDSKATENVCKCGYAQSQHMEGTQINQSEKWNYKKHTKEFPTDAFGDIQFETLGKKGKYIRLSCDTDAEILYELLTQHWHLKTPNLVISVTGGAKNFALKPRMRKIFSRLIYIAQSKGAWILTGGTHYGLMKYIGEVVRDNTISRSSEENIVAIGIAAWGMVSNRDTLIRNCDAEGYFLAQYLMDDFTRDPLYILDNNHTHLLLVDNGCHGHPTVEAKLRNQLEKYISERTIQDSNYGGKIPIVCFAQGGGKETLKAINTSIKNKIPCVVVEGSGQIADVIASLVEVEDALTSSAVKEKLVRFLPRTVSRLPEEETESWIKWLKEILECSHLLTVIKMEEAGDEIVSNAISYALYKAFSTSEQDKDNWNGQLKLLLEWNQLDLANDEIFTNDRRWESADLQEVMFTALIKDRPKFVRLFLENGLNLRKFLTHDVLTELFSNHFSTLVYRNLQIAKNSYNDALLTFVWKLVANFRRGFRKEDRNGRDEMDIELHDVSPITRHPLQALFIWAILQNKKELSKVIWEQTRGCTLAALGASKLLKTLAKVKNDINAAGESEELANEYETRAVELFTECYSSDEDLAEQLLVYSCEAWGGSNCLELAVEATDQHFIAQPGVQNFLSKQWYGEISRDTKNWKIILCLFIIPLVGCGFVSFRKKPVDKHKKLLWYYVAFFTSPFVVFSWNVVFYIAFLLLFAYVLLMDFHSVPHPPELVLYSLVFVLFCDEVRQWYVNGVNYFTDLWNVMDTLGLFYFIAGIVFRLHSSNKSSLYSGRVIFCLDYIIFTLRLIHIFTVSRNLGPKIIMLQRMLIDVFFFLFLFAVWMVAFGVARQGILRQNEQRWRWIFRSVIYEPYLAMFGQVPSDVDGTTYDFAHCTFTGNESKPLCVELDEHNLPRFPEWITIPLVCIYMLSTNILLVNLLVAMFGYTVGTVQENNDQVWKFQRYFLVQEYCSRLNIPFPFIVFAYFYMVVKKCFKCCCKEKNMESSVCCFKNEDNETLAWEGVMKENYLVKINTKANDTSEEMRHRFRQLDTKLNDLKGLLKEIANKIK
Sequence of TRPM8 (Mus musculus, UniProt Q8R4D5) (Q8R4D5 whole entry): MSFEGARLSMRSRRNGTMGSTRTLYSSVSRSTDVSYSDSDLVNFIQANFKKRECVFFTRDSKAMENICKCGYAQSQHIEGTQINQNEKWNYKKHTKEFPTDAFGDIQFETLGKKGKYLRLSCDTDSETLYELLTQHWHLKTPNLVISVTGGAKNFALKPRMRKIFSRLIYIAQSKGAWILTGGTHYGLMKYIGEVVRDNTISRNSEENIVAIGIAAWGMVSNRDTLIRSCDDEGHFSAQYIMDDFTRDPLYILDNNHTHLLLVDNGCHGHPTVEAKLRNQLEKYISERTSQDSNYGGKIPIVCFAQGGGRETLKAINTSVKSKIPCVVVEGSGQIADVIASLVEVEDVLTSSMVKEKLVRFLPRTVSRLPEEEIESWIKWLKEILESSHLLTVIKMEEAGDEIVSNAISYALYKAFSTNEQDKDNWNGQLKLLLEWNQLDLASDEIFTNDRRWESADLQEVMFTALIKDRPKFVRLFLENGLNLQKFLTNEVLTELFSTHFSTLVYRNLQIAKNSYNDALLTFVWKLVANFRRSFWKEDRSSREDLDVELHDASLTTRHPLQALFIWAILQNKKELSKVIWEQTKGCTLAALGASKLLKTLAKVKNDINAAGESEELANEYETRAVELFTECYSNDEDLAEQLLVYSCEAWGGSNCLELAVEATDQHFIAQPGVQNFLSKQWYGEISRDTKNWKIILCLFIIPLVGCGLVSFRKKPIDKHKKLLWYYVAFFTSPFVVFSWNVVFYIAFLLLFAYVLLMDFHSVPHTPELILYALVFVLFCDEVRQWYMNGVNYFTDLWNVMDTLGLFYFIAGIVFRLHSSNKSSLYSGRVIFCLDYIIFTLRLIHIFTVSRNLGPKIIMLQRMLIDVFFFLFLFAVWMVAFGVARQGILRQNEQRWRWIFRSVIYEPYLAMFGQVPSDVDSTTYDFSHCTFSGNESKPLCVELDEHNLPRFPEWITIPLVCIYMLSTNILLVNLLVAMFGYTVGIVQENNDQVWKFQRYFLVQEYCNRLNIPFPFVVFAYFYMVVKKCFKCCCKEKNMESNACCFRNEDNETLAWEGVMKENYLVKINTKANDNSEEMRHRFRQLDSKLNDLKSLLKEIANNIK

Compound: CC1CCC(C(C)C)C(C(=O)NC(C)(C)C)C1 (stereo not shown) [WS-14, N-t-butyl-p-menthane-3-carboxamide]
Relative Cooling Strengths [1]: 75
relative cooling strength [1]: about 5.0

Compound: CC1CCC(C(C)C)C(O)C1 (single isomer, unassigned; (-)) [(−)-Menthol]
Relative Cooling Strengths [1]: 100

Compound: CC(C)[C@@H]1CC[C@@H](C)C[C@H]1OC(=O)CCCC(=O)O [monomenthyl glutarate]
relative cooling strength [1]: about 3.5

Compound: CC(C)[C@@H]1CC[C@@H](C)C[C@@H]1O [(+)-Neomenthol]
Relative Cooling Strengths [1]: 32

Compound: CCCCC[C@H](O)CC(=O)CCc1ccc(O)c(OC)c1 [gingerol]
activation of mouse TRPA1 channel (mouse TRPA1 channel): activated

Compound: Ethyl 3-(p-menthane-3-carboxamido)acetate [WS-5]
comparison of TRPM8 and TRPA1 response (TRPM8 [2]): TRPM8 responding better
response of TRPM8 channel (TRPM8 [2]): responded
response of TRPA1 (human TRPA1): responded
Relative Cooling Strengths [1]: 400
relative cooling strength [1]: about 16.7

Emax (TRPM8 [2]; TRPM8 FLIPR, read-out: response relative to the maximal response of amide coolers): ~50%
Compound: CC1CCC(C(C)C)C(OC(=O)C(C)O)C1 (stereo not shown) [Menthyl Lactate]
temporal response (TRPM8 [2]; TRPM8 FLIPR): quick response with a quick loss of signal
relative cooling strength [1]: about 2.9
response relative to the level of menthol (TRPM8 [3]): 50%

Compound: CC1CCC(C(C)C)C(OC(=O)C(C)O)C1 (stereo not shown) [Frescolat MGA, menthyl lactate]
Relative Cooling Strengths [1]: 41

Compound: CC(C)[C@@H]1CC[C@@H](C)C[C@H]1OCC(O)CO (mixture of isomers) [(2RS)-3-1-menthoxy)propane-1,2-diol]
Relative Cooling Strengths [1]: 22.5

Compound: COC(=O)c1ccccc1O [methyl salicylate]
activation of mouse TRPA1 channel (mouse TRPA1 channel): activated

Compound: (−)-isopulegol [Coolact P]
Relative Cooling Strengths [1]: 25

Compound: CC1CCC(C(C)C)C(C(=O)OCCO)C1 (stereo not shown) [WS-4, Ethyleneglycol p-menthane-3-carboxylate]
Relative Cooling Strengths [1]: 23

Compound: C=CCN=C=S [mustard oil, allyl isothiocyanate]
activation of TRPA1 (TRPA1): activates TRPA1

Compound: CC(C)[C@@H]1CC[C@H](C)C[C@H]1O [(+)-Isomenthol]
Relative Cooling Strengths [1]: 11

Compound: CC(C)[C@@H]1CC[C@@H](C)C[C@H]1OC[C@H](O)CO [(2R)-3-1-menthoxy)propane-1,2-diol]
Relative Cooling Strengths [1]: 15.8

comparison of TRPM8 and TRPA1 response (TRPM8 [2]): TRPM8 responding better
response of TRPM8 channel (TRPM8 [2]): responded
response of TRPA1 (human TRPA1): responded
Compound: CCNC(=O)C1CC(C)CCC1C(C)C (stereo not shown) [WS-3, N-ethyl-p-menthane-3-carboxamide]
Relative Cooling Strengths [1]: 150
relative cooling strength [1]: 10.0

response of TRPM8 channel (TRPM8 [2]): did not respond well
Compound: CC(C)[C@@H]1CC[C@@H](C)C[C@H]1[O+](C)C(=O)CCCC(=O)O [Cooler 2]

Compound: CC1CCC(C(C)(C)O)C(O)C1 (stereo not shown) [PMD 38, p-menthane-3,8-diol]
Relative Cooling Strengths [1]: 11

Compound: CC1CCC(C(C)C)C(O)C1 (single isomer, unassigned; (+)) [(+)-Menthol]
Relative Cooling Strengths [1]: 27

Compound: C=CCc1ccc(O)c(OC)c1 [eugenol]
activation of mouse TRPA1 channel (mouse TRPA1 channel): activated

Compound: CC(=O)CC(=O)OC1CC(C)CCC1C(C)C (stereo not shown) [Ultracool 7]
response of TRPM8 channel (TRPM8 [2]): did not respond well; also recorded: no response
response of TRPA1 (human TRPA1): responded to a wide range of concentrations

Compound: CS(=O)(=O)SCCN [(2-aminoethyl)methanethiosulfonate]
activation of TRPA1 (TRPA1): bind and activate TRPA1

Compound: CC1CCC(C(C)C)C(O)C1 (single isomer, unassigned; (-)) [(−)-Neomenthol]
Relative Cooling Strengths [1]: 3

Compound: CC(C)[C@@H]1CC[C@@H](C)C[C@H]1OC[C@@H](O)CO [(2S)-3-1-menthoxy)propane-1,2-diol]
Relative Cooling Strengths [1]: 39.5

Compound: 1-glyceryl p-menthane-3-carboxylate [WS-30]
Relative Cooling Strengths [1]: 22.5
relative cooling strength [1]: about 1.5

Compound: CNC(=O)C(C)(C(C)C)C(C)C [WS-23, 2-Isopropyl-N,2,3-trimethylbutyramide]
Relative Cooling Strengths [1]: 75
relative cooling strength [1]: about 5.0

Compound: NC(=O)CI [iodoacetamide]
activation of TRPA1 (TRPA1): bind and activate TRPA1

Compound: CC(C)[C@H]1CC[C@@H](C)C[C@@H]1O [(−)-Isomenthol]
Relative Cooling Strengths [1]: 3

Compound: (+)-Neoisomenthol
Relative Cooling Strengths [1]: 3

Compound: COc1ccc(NC(=O)C2CC(C)CCC2C(C)C)cc1 (stereo not shown) [WS-12, N-(4-methoxyphenyl)-p-menthane-3-carboxamide]
Relative Cooling Strengths [1]: 150

Compound: CNC(=O)C1C(C)CCCC1(C)C (stereo not shown) [N,2,2,6-Tetramethylcyclohexane-1-carboxamide]
relative cooling strength [1]: about 1.0

Compound: CC(C)[C@@H]1CC[C@@H](C)C[C@H]1O [Menthol]
temporal response (TRPM8 [2]; TRPM8 FLIPR): quick response with deterioration over time

Compound: (−)-Neoisomenthol
Relative Cooling Strengths [1]: 13

Compound: O=CC=Cc1ccccc1 [cinnamaldehyde]
activation of mouse TRPA1 channel (mouse TRPA1 channel): activated
